According to ChEMBL document CHEMBL1131630, “(Z,Z)-2,7-Bis(4-amidinobenzylidene)cycloheptan-1-one: identification of a highly active inhibitor of blood coagulation factor Xa” (J Med Chem, 1998):

What was measured:
Coagulation factor X = Coagulation factor X (Homo sapiens, UniProt P00742); test: Compound (isomer) was tested in the absence of light for inhibitory activity against Human Coagulation factor X
Serine protease 1 = biological target: T1, Serine protease 1 (Bos taurus, UniProt P00760); test: Compound (isomer) was tested in the absence of light for inhibitory activity against trypsin.
T1 sequence (P00760 whole entry): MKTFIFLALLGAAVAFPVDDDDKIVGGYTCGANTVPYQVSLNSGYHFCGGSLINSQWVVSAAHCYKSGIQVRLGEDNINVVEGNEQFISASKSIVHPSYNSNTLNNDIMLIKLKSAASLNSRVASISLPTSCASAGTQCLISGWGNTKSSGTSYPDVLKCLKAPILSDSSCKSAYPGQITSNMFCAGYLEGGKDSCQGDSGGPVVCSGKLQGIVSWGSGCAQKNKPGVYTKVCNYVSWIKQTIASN

Prothrombin = Prothrombin (Homo sapiens, UniProt P00734); test: Compound (isomer) was tested in the absence of light for inhibitory activity against thrombin.

Sequence of Coagulation factor X (P00742 41-179 limits assumed): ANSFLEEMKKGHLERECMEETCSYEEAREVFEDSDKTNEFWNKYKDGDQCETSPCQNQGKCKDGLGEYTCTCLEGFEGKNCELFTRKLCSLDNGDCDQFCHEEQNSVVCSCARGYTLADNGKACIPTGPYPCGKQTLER
Sequence of Coagulation factor X (P00742 235-488 limits assumed): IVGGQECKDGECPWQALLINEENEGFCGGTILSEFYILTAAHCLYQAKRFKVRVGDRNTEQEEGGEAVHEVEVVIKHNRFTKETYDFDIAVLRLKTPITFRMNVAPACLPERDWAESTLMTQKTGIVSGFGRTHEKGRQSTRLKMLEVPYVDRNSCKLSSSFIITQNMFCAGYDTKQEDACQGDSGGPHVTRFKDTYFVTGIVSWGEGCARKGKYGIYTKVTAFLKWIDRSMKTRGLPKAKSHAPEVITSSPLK

Ki (Coagulation factor X) | Ki (Serine protease 1) | Ki (Prothrombin) | Compound
17000 nM | 280 nM | – | N=C(N)c1ccc(/C=C2\CCCC/C(=C\c3ccc(C(=N)N)cc3)C2=O)cc1
– | 29 nM | 130 nM | N=C(N)c1ccc(/C=C2/CCCC/C(=C\c3ccc(C(=N)N)cc3)C2=O)cc1
